The values below are quoted from earlier work in US11191839B2, “Composition for treatment of infertility in a subject” (priority 2015, dated 2021).

The test system of the series is couples with unexplained infertility. Conditions: pertubation with low doses before artificial insemination; Edelstam et al. 2008.

Turning to `CCN(CC)CC(=O)Nc1c(C)cccc1C` [lidocaine, Lidocaine], the Pregnancy rates result is “increase pregnancy rates”.
